Values quoted from earlier work as cited in US10227357B2, “Compounds and methods for kinase modulation, and indications therefor” (Plexxikon Inc., priority 2012, dated 2019).

Tested on: cells with activating c-kit mutations in the catalytic region
Details: Ma et al., 2002; cited from earlier work

## Cc1ccc(NC(=O)c2ccc(CN3CCN(C)CC3)cc2)cc1Nc1nccc(-c2cccnc2)n1 [STI571]
  inhibition of cells with c-kit mutations in the catalytic region: did not inhibit
